Test results taken from patent publication US20030203969A1, “Pharmaceutically active aromatic guanylhydrazones” (priority 2000, published 2003).

Legend:
[1] = system: T-cell-tropic HIV-1NL4/3 strain; test: Inhibition of T-cell-tropic HIV-1 NL4/3 replication in de novo infected Jurkat cells (p24 antigen); assay type: cell-based; details: d10
Experimental: (§1) HIV replication was measured either by p24 HIV Antigen Capture Assay Kit (ELISA; HIVAG-1 Monoclonal kit BIA011; Abbott) following the manufacturer's recommendation, or by using the Quantiplex HIV-1 RNA 3.0 Assay (bDNA) system (Chiron Diagnostics). The latter assay is a signal amplification nucleic acid probe assay (employing a sandwich nucleic acid hybridization procedure) for direct quantitation of HIV RNA in human plasma. There, in brief, HIV-1 is first concentrated from plasma by centrifugation. After release of genomic HIV-1 RNA from the virions, the RNA is captured to a microwell by a set of specific, synthetic oligonucleotide capture probes. A set of target probes hybridize to both the viral RNA and the pre-amplifier probes. The capture probes, comprised of 17 individual capture extenders, and the target probes, comprised of 81 individual target extenders, bind to different regions of the pol gene of the viral RNA. The amplifier probe hybridizes to the pre-amplifier forming a branched DNA (bDNA) complex. Then, multiple copies of an alkaline phosphatase labeled probe are hybridized to this immobilized bDNA complex. Detection is achieved by incubating the entire complex with a chemoluminescent substrate. Light emission is directly proportional to the amount of HIV-1 RNA present in each sample, and results are recorded as relative light units by an appropriate analyzer.
Jurkat cells (species: human T-cell leukemia; special characteristics: cells are permissive for growth of T-cell tropic HIV strains; source:ATCC Cat.No. TIB 152) or PM1 cells (species: clonal derivative of human HUT 78 cells; special characteristics: cells are permissive for growth of macrophage-tropic and T-cell tropic HIV strains; source: Dr. Marvin Reitz, courtesy of the NIH AIDS Research and Reference Reagent Program Cat.No. 3038) were stimulated with Phytohemagglutinin (PHA-P, Product No. L9132 from Sigma) in a concentration of 2 μg/ml (1.5×10^6 cells/ml) and Hexadimethrine Bromide (Polybrene, Product No. H9268 from Sigma) in a concentration of 2 μg/ml (1.5×10^6 cells/ml) in RPMI 1640 medium containing 10% fetal calf serum (FCS, Pansystems GmbH) and antibiotics for 3 days.
For HIV-1 infection, 5×10^7 cells were resuspended in 500 μl culture medium without test drugs and incubated in a 50 ml blue-cap-tube at 37° C. for 5 hrs with HIV-1 high titer viral stocks. Jurkat cells were infected with the T-cell tropic strain HIV-1 NL4-3, PM1 cells with the macrophage tropic strain HIV-1 Ba-L (both from the NIH AIDS Research and Reference Reagent Program). After infection, cells were washed twice with PBS without Ca^2+ and Mg^2+ to avoid false positive p24 antigen determination. Cells were resuspended, and identical aliquots (1×10^6/ml) of infected cells were further cultured in 10 ml medium with test drugs at various concentrations, or in medium with DMSO as control for calculation of the inhibition of virus replication (in %].
Culture medium was changed and cells were split at days 3 and 7 of the experiments. Viability of the cells (Trypan-blue staining), cell counts and p24 antigen levels were determined at days 3, 7 and 10 of the experiments. No significant differences in cell viability were observed (˜85-90% living cells).
At day 10 of infection, the HIV strains replicated vigorously in untreated cultures. Numbers describe percent inhibition of HIV replication as compared to control experiments.

clinical HIV-1 isolates = test: Inhibition of clinical HIV-1 isolates in PBMCs from HIV-1-infected patients; assay type: cell-based; details: d14
Experimental: as §1
Peripheral blood mononuclear cells (PBMCs) from HIV-1-infected patients were isolated—(after informal consent was given)—by Biocoll (Biochrom) gradient centrifugation. 1×10^6/ml PBMCs were cultured (5 ml in a six well 32-mm plate) in presence of the test drugs or in DMSO (control diluent) in RPMI 1640 medium supplemented with 10% autologous serum and 2 mM L-Glutamine at 37° C. and 5% CO2.
The culture medium was changed every 3 days during the experiments. Once a week, each culture was split 1:1 and 2×10^6 feeder-PBMCs (per well) and recombinant Interleukin 2 (IL-2) [10U/ml] (Roche) was added. Prior to addition to the cell cultures, the feeder-PBMCs, prepared from 4 healthy donors, were treated for 4 days with PHA-P and PB (2 μg/ml each per 2×10^6 cells). At day 14, viability of the PBMCs (Trypan-blue staining), cell count and virus load (p24 antigen: Innotest HIV Antigen mAb, Innogenetics N. V., Gent, Belgium, or bDNA: HIV-1 RNA 3.0 Assay, Bayer AG, Tarrytown, N.Y., USA) was determined. No significant differences in cell viability were observed (˜75-80% vital cells).
At day 14 of cultivation, the virus replicated vigorously in all untreated cultures. Numbers describe percent inhibition of HIV-1 replication as compared to control experiments.

BCBL-1 cells = test: Compound toxicity in BCBL-1 cells (Cell Titer Aqueous One); assay type: cell-based, human; details: read-out: TC50 (the source's name)
Experimental: The human BCBL-1 cell line is available through the AIDS Reference and Reagent Program (Cat.No. 3233). This cell line was derived from a body cavity-based lymphoma latently infected with HHV-8. Culturing these cells in the presence of phorbol ester induces a lytic infection cycle, resulting in the release of viral particles into the medium. Compound efficacy in this proposed assay is determined using TaqMan PCR technology, and compound toxicity is measured by addition of Promega's Cell Titer Aqueous One Solution (metabolic dye).
12. Duplicate plates will be set up plating media in place of TPA for evaluation of compound toxicity.
12. Twenty microliters of Cell Titer Aqueous One Solution (Promega) will be added to each well of the toxicity plates. Plates will be incubated at 37° C. in a humidified CO2 incubator for 4 hours or until sufficient color development has occurred. Plates will be read on a VMax microtiter plate reader at a wavelength of 490/650 nm. Toxicity of the test compound will be determined by comparing the optical density of test wells with that of control wells.

In the case of CC(=NNC(=N)N)c1cc(NC(=O)CCCCCCCCC(=O)Nc2cc(C(C)=NNC(=N)N)cc(C(C)=NNC(=N)N)c2)cc(C(C)=NNC(=N)N)c1 [Compound 4, N,N′-bis (3,5-diacetylphenyl) decane diamide tetrakis (amidinohydrazone)], the “percent inhibition of HIV replication as compared to control” value ([1]; HIV-1 NL4/3, 0.5 μM) is reported as 31%, the “percent inhibition of HIV replication as compared to control” value ([1]; HIV-1 NL4/3, 1.0 μM) is reported as 85% and the “percent inhibition of HIV-1 replication as compared to control” value (“percent inhibition of HIV-1 replication” for short) (clinical HIV-1 isolates; HIV-infected PBMCs from patient 1, 0.5 μM) is reported as 91.6%. The “percent inhibition of HIV-1 replication” value (clinical HIV-1 isolates; HIV-infected PBMCs from patient 1, 1.0 μM) was 90.7%, the “percent inhibition of HIV-1 replication” value (clinical HIV-1 isolates; HIV-infected PBMCs from patient 2, 0.5 μM) was 85.8% and the “percent inhibition of HIV-1 replication” value (clinical HIV-1 isolates; HIV-infected PBMCs from patient 2, 1.0 μM) was 97.6%. For the same molecule, the “percent inhibition of HIV-1 replication” value (clinical HIV-1 isolates; HIV-infected PBMCs from patient 3, 0.5 μM) was 91%, the “percent inhibition of HIV-1 replication” value (clinical HIV-1 isolates; HIV-infected PBMCs from patient 3, 1.0 μM) was 90% and the CC50 (BCBL-1 cells) was 78.9 µM.
